According to the supplement of paper PMC12317010:
Counter-ions that a name gives are not always drawn.

Test: collision cross section in nitrogen (drift tube, single-field); higher = larger gas-phase ion size
[1] = ion type: [M+H], ion source: APCI, ion mode: Positive
[2] = ion type: [M+H], ion source: ESI, ion mode: Positive
[3] = ion type: [M+Na], ion source: ESI, ion mode: Positive
[4] = ion type: [M-H], ion source: ESI, ion mode: Negative
[5] = ion type: [M+], ion source: APCI, ion mode: Positive
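Further: chemical standards at 10 µM analysed by drift tube IMS-QTOF MS in about 3.95 torr nitrogen, mean of duplicate injections differing ≤1%, mass error below 10 ppm.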

Row | collision cross section in nitrogen [1] [Å²] | collision cross section in nitrogen [2] [Å²] | collision cross section in nitrogen [3] [Å²] | collision cross section in nitrogen [5] [Å²] | Structure (SMILES) | collision cross section in nitrogen [4] [Å²]
1 | 217.4 | 217.1 | 224.1 | – | Cc1oc(-c2ccccc2)nc1CCOc1ccc(C[C@H](Nc2ccccc2C(=O)c2ccccc2)C(=O)O)cc1 [Farglitazar] | 228.5
2 | – | 183.6 | – | – | Cc1nc(-c2ccc(OCC(C)C)c(C#N)c2)sc1C(=O)O [Febuxostat] | –
3 | – | – | 159.6 | – | NC(=O)OCC(COC(N)=O)c1ccccc1 [Felbamate] | –
4 | 175 | 174.6 | – | – | COC(=O)Nc1nc2cc(Sc3ccccc3)ccc2[nH]1 [Fenbendazole] | 174.9
5 | – | 192.8 | 198.4 | – | CC(C)OC(=O)C(C)(C)Oc1ccc(C(=O)c2ccc(Cl)cc2)cc1 [Fenofibrate] | –
6 | – | 189.8 | 189 | – | CCOC(=O)[C@H](C)Oc1ccc(Oc2nc3ccc(Cl)cc3o2)cc1 [Fenoxaprop-(2S)-ethyl] | –
7 | 189.9 | 189.5 | 189 | – | CCOC(=O)[C@@H](C)Oc1ccc(Oc2nc3ccc(Cl)cc3o2)cc1 [Fenoxaprop-P-ethyl] | –
8 | 190.2 | 189.3 | 189.1 | – | CCOC(=O)C(C)Oc1ccc(Oc2nc3ccc(Cl)cc3o2)cc1 (stereo not given) [Fenoxaprop-ethyl] | –
9 | – | – | 184.6 | – | CCOC(=O)NCCOc1ccc(Oc2ccccc2)cc1 [Fenoxycarb] | –
10 | 134 | 134.4 | 144.7 | – | CN(C)C(=O)Nc1ccccc1 [Fenuron] | 137
11 | 204.7 | 203.3 | 226.8 | – | CC(C)(C)NC(=O)[C@H]1CC[C@H]2[C@@H]3CC[C@H]4NC(=O)C=C[C@]4(C)[C@H]3CC[C@]12C [Finasteride] | 198.1
12 | 190.4 | 190.3 | 202.1 | – | O=C(COc1ccc(Cl)cc1)N1CCN(Cc2ccc3c(c2)OCO3)CC1 [Fipexide hydrochloride] | –
13 | – | – | – | – | N#Cc1nn(-c2c(Cl)cc(C(F)(F)F)cc2Cl)c(N)c1S(=O)C(F)(F)F (stereo not given) [Fipronil] | 178.1
14 | 182.1 | – | 193.4 | – | CC(C)OC(=O)C(C)N(C(=O)c1ccccc1)c1ccc(F)c(Cl)c1 (stereo not given) [Flamprop-isopropyl] | –
15 | 146.6 | 146.5 | – | – | O=c1cc(-c2ccccc2)oc2ccccc12 [Flavone] | –
16 | 195.5 | 195.1 | 194.4 | – | CCCCOC(=O)C(C)Oc1ccc(Oc2ccc(C(F)(F)F)cn2)cc1 (stereo not given) [Fluazifop-butyl] | 188.7
17 | – | – | – | – | O=[N+]([O-])c1cc(C(F)(F)F)c(Cl)c([N+](=O)[O-])c1Nc1ncc(C(F)(F)F)cc1Cl [Fluazinam] | 182.2
18 | – | – | – | – | COc1nn(C(=O)NS(=O)(=O)c2ccccc2OC(F)(F)F)c(=O)n1C [Flucarbazone-sodium] | 182.9
19 | 167.5 | 167.2 | 172 | – | OC(Cn1cncn1)(Cn1cncn1)c1ccc(F)cc1F [Fluconazole] | –

Row | collision cross section in nitrogen [1] [Å²] | collision cross section in nitrogen [2] [Å²] | collision cross section in nitrogen [3] [Å²] | collision cross section in nitrogen [5] [Å²] | Structure (SMILES) | collision cross section in nitrogen [4] [Å²]
20 | – | – | – | – | N#Cc1c[nH]cc1-c1cccc2c1OC(F)(F)O2 [Fludioxonil] | 146.3
21 | – | – | – | 157.7 | O=C(O)c1ccccc1Nc1cccc(C(F)(F)F)c1 [Flufenamic acid] | 160.9
22 | – | – | – | – | O=C(NC(=O)c1c(F)cccc1F)Nc1ccc(Oc2ccc(C(F)(F)F)cc2Cl)cc1F [Flufenoxuron] | 215.8
23 | – | 182.1 | 191.4 | – | CCOC(=O)COc1cc(-n2ncc(C(F)(F)F)c(C)c2=O)c(F)cc1Cl [Flufenpyr-ethyl] | 183.3
24 | – | – | 209.5 | – | CCCCCOC(=O)COc1cc(N2C(=O)C3=C(CCCC3)C2=O)c(F)cc1Cl [Flumiclorac-pentyl] | 196.2
25 | – | – | 226.8 | – | CC1(C)O[C@@H]2C[C@H]3[C@@H]4C[C@H](F)C5=CC(=O)C=C[C@]5(C)[C@@]4(F)[C@@H](O)C[C@]3(C)[C@]2(C(=O)CO)O1 [Fluocinolone acetonide] | 194.2
26 | – | 175.4 | 187 | – | O=C(NCc1ncc(C(F)(F)F)cc1Cl)c1c(Cl)cccc1Cl [Fluopicolide] | –
27 | 174.3 | 173.8 | 189.1 | – | O=C1OC2(c3ccc(O)cc3Oc3cc(O)ccc32)c2ccccc21 [Fluorescein sodium] | 176.1
28 | 174.2 | 174.2 | 190.6 | – | O=C1OC2(c3ccc(O)cc3Oc3cc(O)ccc32)c2ccccc21 [Fluorescein] | 176.8
29 | – | – | 210.7 | – | CCOC(=O)COC(=O)c1cc(Oc2ccc(C(F)(F)F)cc2Cl)ccc1[N+](=O)[O-] [Fluoroglycofen-ethyl] | –
30 | 186.6 | – | 211.3 | – | CC(=O)[C@@]1(O)CC[C@H]2[C@@H]3C[C@H](C)C4=CC(=O)C=C[C@]4(C)[C@@]3(F)[C@@H](O)C[C@@]21C [Fluorometholone] | –
31 | – | – | – | – | O=C(Nc1cccc(C(F)(F)F)c1)c1cc(Br)cc(Br)c1O [Fluorosalan] | 175.5
32 | – | 186.9 | – | – | CC1(C)O[C@@H]2C[C@H]3[C@@H]4C[C@H](F)C5=CC(=O)CC[C@]5(C)[C@H]4[C@@H](O)C[C@]3(C)[C@]2(C(=O)CO)O1 [Flurandrenolide] | 201.8
33 | – | – | 194.3 | – | CCCCCCC(C)OC(=O)COc1nc(F)c(Cl)c(N)c1Cl (stereo not given) [Fluroxypyr-meptyl] | 176.2
34 | – | – | – | – | Nc1c(Cl)c(F)nc(OCC(=O)O)c1Cl [Fluroxypyr] | 141.3
35 | – | – | – | – | CC(C)C(=O)Nc1ccc([N+](=O)[O-])c(C(F)(F)F)c1 [Flutamide] | 154.9
36 | – | – | – | – | CC(C)n1c(/C=C/[C@H](O)C[C@H](O)CC(=O)O)c(-c2ccc(F)cc2)c2ccccc21 [Fluvastatin] | 200
37 | 159.8 | 160.3 | 171.4 | 156.9 | COc1ccc(-c2coc3cc(O)ccc3c2=O)cc1 [Formononetin] | –

Row | Structure (SMILES) | collision cross section in nitrogen [1] [Å²] | collision cross section in nitrogen [2] [Å²] | collision cross section in nitrogen [3] [Å²] | collision cross section in nitrogen [5] [Å²] | collision cross section in nitrogen [4] [Å²]
38 | CSC1=N[C@@](C)(c2ccccc2)C(=O)N1Nc1ccccc1 [Fenamidone] | 172.6 | 172.7 | – | – | 174.6
39 | CCOP(=O)(NC(C)C)Oc1ccc(S(C)(=O)=O)c(C)c1 (stereo not given) [Fenamiphos sulfone] | 182.4 | 180.3 | 181.5 | – | 176.7
40 | CCOP(=O)(NC(C)C)Oc1ccc(SC)c(C)c1 (stereo not given) [Fenamiphos] | 172.5 | 171.3 | 178.1 | – | 172.2
41 | CC1(C(=O)Nc2ccc(O)c(Cl)c2Cl)CCCCC1 [Fenhexamid] | 166.7 | 166.4 | – | – | 172.6
42 | CC1(C)C(C(=O)OC(C#N)c2cccc(Oc3ccccc3)c2)C1(C)C (stereo not given) [Fenpropathrin] | – | – | 186 | – | –
43 | CCOP(=S)(OCC)Oc1ccc(S(C)=O)cc1 (stereo not given) [Fensulfothion] | – | 174.5 | 169.7 | – | –
44 | COP(=S)(OC)Oc1ccc(SC)c(C)c1 [Fenthion] | – | 161.6 | 166.3 | – | –
45 | COc1ncc(F)c2nc(S(=O)(=O)Nc3c(F)cccc3F)nn12 [Florasulam] | 172.3 | 172.1 | 181.7 | – | 174.5
46 | Cc1cc(C(F)(C(F)(F)F)C(F)(F)F)ccc1NC(=O)c1cccc(I)c1C(=O)NC(C)(C)CS(C)(=O)=O [Flubendiamide] | – | – | 222.6 | – | 222.1
47 | CC(C)C(C(=O)OC(C#N)c1cccc(Oc2ccccc2)c1)c1ccc(OC(F)F)cc1 (stereo not given) [Flucythrinate] | 214.8 | – | 208.3 | – | –
48 | CC(C)N(C(=O)COc1nnc(C(F)(F)F)s1)c1ccc(F)cc1 [Flufenacet] | – | – | 187.5 | – | –
49 | Cc1ccn2nc(S(=O)(=O)Nc3c(F)cccc3F)nc2n1 [Flumetsulam] | 167.4 | 167.7 | 176.7 | – | 172.5
50 | C#CCN1C(=O)COc2cc(F)c(N3C(=O)C4=C(CCCC4)C3=O)cc21 [Flumioxazin] | – | 183.7 | – | 181 | 184.5
51 | CN(C)C(=O)Nc1cccc(C(F)(F)F)c1 [Fluometuron] | 150.5 | 150.1 | 155 | – | 146.2
52 | CO/N=C(/C1=NOCCO1)c1ccccc1Oc1ncnc(Oc2ccccc2Cl)c1F [Fluoxastrobin] | 204.8 | 204.3 | 208.1 | – | –
53 | C[Si](Cn1cncn1)(c1ccc(F)cc1)c1ccc(F)cc1 [Flusilazole] | 176.6 | 174.9 | – | – | –
54 | CC(C)Oc1cccc(NC(=O)c2ccccc2C(F)(F)F)c1 [Flutolanil] | 173.1 | 172.7 | 183.5 | – | 176.1
55 | OC(Cn1cncn1)(c1ccc(F)cc1)c1ccccc1F (stereo not given) [Flutriafol] | – | 167.5 | 183.1 | – | –
56 | O=C(Nc1ccccc1)Nc1ccnc(Cl)c1 [Forchlorfenuron] | 156.5 | 156.9 | – | – | 155.2
57 | CNC(=O)Oc1cccc(N=CN(C)C)c1 [Formetanate hydrochloride] | – | 156 | – | – | –
